Results from ChEMBL document CHEMBL1127966, “Acyclic NK1 antagonists: Replacements for the benzhydryl group” (Bioorg Med Chem Lett, 1994).

Assays:
Substance-P receptor = Substance-P receptor (Homo sapiens, UniProt P25103); experiment: Binding affinity of compound was determined from inhibition of [125I]- substance P binding to the hNK1 receptor in CHO cells; assay type: cell-based
[1] = biological target: T1, Neuromedin-K receptor (Homo sapiens) (UniProt P29371); experiment: Binding affinity to Tachykinin receptor 3
T1 sequence (whole entry): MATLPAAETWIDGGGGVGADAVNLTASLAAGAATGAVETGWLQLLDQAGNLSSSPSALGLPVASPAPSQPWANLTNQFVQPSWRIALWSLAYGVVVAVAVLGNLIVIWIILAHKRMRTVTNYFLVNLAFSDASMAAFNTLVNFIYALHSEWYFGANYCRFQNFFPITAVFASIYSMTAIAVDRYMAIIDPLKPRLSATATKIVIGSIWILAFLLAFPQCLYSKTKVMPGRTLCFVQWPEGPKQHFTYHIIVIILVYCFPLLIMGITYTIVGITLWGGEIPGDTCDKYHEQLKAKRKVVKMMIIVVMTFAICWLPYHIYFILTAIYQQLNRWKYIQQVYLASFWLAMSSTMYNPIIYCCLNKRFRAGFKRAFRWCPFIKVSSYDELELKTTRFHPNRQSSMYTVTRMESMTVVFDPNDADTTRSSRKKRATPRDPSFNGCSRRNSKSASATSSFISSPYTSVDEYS

[2] = biological target: T2, Substance-K receptor (Homo sapiens) (UniProt P21452); experiment: Binding affinity to Tachykinin receptor 2
T2 sequence (whole entry): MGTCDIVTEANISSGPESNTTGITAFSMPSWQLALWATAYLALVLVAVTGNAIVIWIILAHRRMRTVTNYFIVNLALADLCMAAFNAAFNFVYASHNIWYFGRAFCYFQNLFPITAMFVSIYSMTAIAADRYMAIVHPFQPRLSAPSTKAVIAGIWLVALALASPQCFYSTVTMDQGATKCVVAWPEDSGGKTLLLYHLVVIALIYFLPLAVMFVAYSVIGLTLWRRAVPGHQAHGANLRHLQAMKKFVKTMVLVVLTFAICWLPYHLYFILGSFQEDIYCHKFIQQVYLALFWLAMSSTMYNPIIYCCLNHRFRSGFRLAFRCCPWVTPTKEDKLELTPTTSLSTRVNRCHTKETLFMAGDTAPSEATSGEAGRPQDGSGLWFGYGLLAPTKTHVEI

Chain of Substance-P receptor (P25103 whole entry): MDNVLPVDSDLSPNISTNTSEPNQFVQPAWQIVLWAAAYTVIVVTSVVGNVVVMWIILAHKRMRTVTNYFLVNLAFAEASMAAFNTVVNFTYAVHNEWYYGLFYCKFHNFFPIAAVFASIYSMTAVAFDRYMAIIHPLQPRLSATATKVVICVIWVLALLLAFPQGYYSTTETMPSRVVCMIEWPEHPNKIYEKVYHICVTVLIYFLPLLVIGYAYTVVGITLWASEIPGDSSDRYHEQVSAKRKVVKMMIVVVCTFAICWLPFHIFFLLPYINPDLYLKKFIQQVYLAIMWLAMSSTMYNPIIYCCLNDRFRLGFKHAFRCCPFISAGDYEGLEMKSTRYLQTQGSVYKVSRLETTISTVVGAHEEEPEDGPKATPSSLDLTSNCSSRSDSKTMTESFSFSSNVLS

| IC50 (Substance-P receptor) | Affinity [1] | Affinity [2] | SMILES |
| --- | --- | --- | --- |
| 2500 nM | – | – | Cc1cc(C)cc(COC[C@H](N)c2ccccc2)c1 |
| 1160 nM | – | – | Cc1cc(C)cc(COCC(N)Cc2cccc3ccccc23)c1 (centres undefined) |
| 9.3 nM | – | – | Cc1cc(C)cc(COCC(N)C(c2ccccc2)c2ccccc2)c1 (centres undefined) |
| 55 nM | > 10 µM | > 10 µM | Cc1cc(C)cc(COC[C@@H](N)c2ccccc2)c1 |
| 93 nM | – | – | Cc1cc(C)cc(COCC(N)C2c3ccccc3CCc3ccccc32)c1 (centres undefined) |
| 80 nM | – | – | Cc1cc(C)cc(COCC(N)C2c3ccccc3C=Cc3ccccc32)c1 (centres undefined) |

| SMILES | IC50 (Substance-P receptor) | Affinity [1] | Affinity [2] |
| --- | --- | --- | --- |
| Cc1cc(C)cc(COCC(N)Cc2ccccc2)c1 (centres undefined) | 483 nM | – | – |
